Results: PubChem BioAssay AID1963827 (Molecular Pharmacology Branch, DTP, NCI, 2024)

Tested on: 994946-033-R-J1-PDC complex spheroid viability
Experiment: Anticancer human tumor 994946-033-R-J1-PDC patient-derived melanoma cell line growth inhibition [POLQ]
Conditions: for IC50: curve of first compound; for viability, T/C: stronger effect = lower value
In short: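 Growth inhibition in 3D: complex spheroids (tumor PDC, HUVEC, MSC) treated with POLQ inhibitor combinations; where Cmax unknown, highest tested concentration 10 microM, except SN-38 at 1 microM.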

[1] = second compound 0.0316 µM, first compound 0.0316 µM
[2] = second compound 0.0316 µM, first compound 0.1 µM
[3] = second compound 0.0316 µM, first compound 0.316 µM
[4] = second compound 0.0316 µM, first compound 1 µM
[5] = second compound 0.1 µM, first compound 0.0316 µM
[6] = second compound 0.1 µM, first compound 0.1 µM
[7] = second compound 0.1 µM, first compound 0.316 µM
[8] = second compound 0.1 µM, first compound 1 µM
[9] = second compound 0.316 µM, first compound 0.0316 µM
[10] = second compound 0.316 µM, first compound 0.1 µM
[11] = second compound 0.316 µM, first compound 0.316 µM
[12] = second compound 0.316 µM, first compound 1 µM
[13] = second compound 1 µM, first compound 0.0316 µM
[14] = second compound 1 µM, first compound 0.1 µM
[15] = second compound 1 µM, first compound 0.316 µM
[16] = second compound 1 µM, first compound 1 µM
[17] = second compound 3.16 µM, first compound 0.0316 µM
[18] = second compound 3.16 µM, first compound 0.1 µM
[19] = second compound 3.16 µM, first compound 0.316 µM
[20] = second compound 3.16 µM, first compound 1 µM
[21] = second compound 10 µM, first compound 0.0316 µM
[22] = second compound 10 µM, first compound 0.1 µM
[23] = second compound 10 µM, first compound 0.316 µM
[24] = second compound 10 µM, first compound 1 µM
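Note: spheroids exposed to drugs for 7 days.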
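Throughout, for viability, T/C: 100% = DMSO vehicle treated spheroids.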

With C=CCn1c(=O)c2cnc(Nc3ccc(N4CCN(C)CC4)cc3)nc2n1-c1cccc(C(C)(C)O)n1 + Nc1ccc(C#CCN(C(=O)Cc2ncc(C(F)(F)F)cc2C(F)(F)F)c2ccc(F)cc2)nn1 the IC50 (second compound 0.0316 µM) was 837 nM, the IC50 (second compound 0.1 µM) was 444 nM and the IC50 (second compound 0.316 µM) was 397 nM. The IC50 (second compound 1 µM) was 780 nM, the IC50 (second compound 3.16 µM) was 712 nM and the IC50 (second compound 10 µM) was 643 nM. It also gave a viability, T/C (second compound 0.0316 µM, first compound 0.00316 µM) of 70.3%, a viability, T/C (second compound 0.0316 µM, first compound 0.01 µM) of 122% and a viability, T/C [1] of 80%. The viability, T/C [2] was 95.6%, the viability, T/C [3] was 91.8% and the viability, T/C [4] was 42.4%. It also gave a viability, T/C (second compound 0.1 µM, first compound 0.00316 µM) of 81%, a viability, T/C (second compound 0.1 µM, first compound 0.01 µM) of 107% and a viability, T/C [5] of 97.8%. For the same compound, the viability, T/C [6] was 103%, the viability, T/C [7] was 59.2% and the viability, T/C [8] was 28%. The viability, T/C (second compound 0.316 µM, first compound 0.00316 µM) was 101%, the viability, T/C (second compound 0.316 µM, first compound 0.01 µM) was 124% and the viability, T/C [9] was 105%. For the same compound, the viability, T/C [10] was 81.7%, the viability, T/C [11] was 60.2% and the viability, T/C [12] was 20.6%. For the same compound, the viability, T/C (second compound 1 µM, first compound 0.00316 µM) was 123%, the viability, T/C (second compound 1 µM, first compound 0.01 µM) was 100% and the viability, T/C [13] was 147%. It also gave a viability, T/C [14] of 109%, a viability, T/C [15] of 100% and a viability, T/C [16] of 36.2%. The viability, T/C (second compound 3.16 µM, first compound 0.00316 µM) was 109%, the viability, T/C (second compound 3.16 µM, first compound 0.01 µM) was 105% and the viability, T/C [17] was 120%. The viability, T/C [18] was 85%, the viability, T/C [19] was 84.9% and the viability, T/C [20] was 36.4%. The viability, T/C (second compound 10 µM, first compound 0.00316 µM) was 106%, the viability, T/C (second compound 10 µM, first compound 0.01 µM) was 82.5% and the viability, T/C [21] was 94.8%. It also gave a viability, T/C [22] of 95.4%, a viability, T/C [23] of 67.4% and a viability, T/C [24] of 39.1%.

With CNCc1ccc(-c2[nH]c3cc(F)cc4c3c2CCNC4=O)cc1 + Nc1ccc(C#CCN(C(=O)Cc2ncc(C(F)(F)F)cc2C(F)(F)F)c2ccc(F)cc2)nn1 the IC50 (second compound 0.0316 µM) was > 10000 nM, the IC50 (second compound 0.1 µM) was > 10000 nM and the IC50 (second compound 0.316 µM) was > 10000 nM. The IC50 (second compound 1 µM) was > 10000 nM, the IC50 (second compound 3.16 µM) was > 10000 nM and the IC50 (second compound 10 µM) was > 10000 nM. It also gave a viability, T/C [1] of 97.4%, a viability, T/C [2] of 84.1% and a viability, T/C [3] of 84%. The viability, T/C [4] was 85.3%, the viability, T/C (second compound 0.0316 µM, first compound 3.16 µM) was 94.5% and the viability, T/C (second compound 0.0316 µM, first compound 10 µM) was 79%. It also gave a viability, T/C [5] of 77.9%, a viability, T/C [6] of 83.1% and a viability, T/C [7] of 99.7%. It also gave a viability, T/C [8] of 61.5%, a viability, T/C (second compound 0.1 µM, first compound 3.16 µM) of 95.8% and a viability, T/C (second compound 0.1 µM, first compound 10 µM) of 70.6%. For the same compound, the viability, T/C [9] was 81.7%, the viability, T/C [10] was 86.4% and the viability, T/C [11] was 90%. The viability, T/C [12] was 68.8%, the viability, T/C (second compound 0.316 µM, first compound 3.16 µM) was 77.2% and the viability, T/C (second compound 0.316 µM, first compound 10 µM) was 69.1%. It also gave a viability, T/C [13] of 73.4%, a viability, T/C [14] of 69.2% and a viability, T/C [15] of 107%. For the same compound, the viability, T/C [16] was 77.9%, the viability, T/C (second compound 1 µM, first compound 3.16 µM) was 103% and the viability, T/C (second compound 1 µM, first compound 10 µM) was 63.1%. It also gave a viability, T/C [17] of 105%, a viability, T/C [18] of 105% and a viability, T/C [19] of 85%. It also gave a viability, T/C [20] of 107%, a viability, T/C (second compound 3.16 µM, first compound 3.16 µM) of 74.2% and a viability, T/C (second compound 3.16 µM, first compound 10 µM) of 77.5%. It also gave a viability, T/C [21] of 72%, a viability, T/C [22] of 74.2% and a viability, T/C [23] of 88.7%. It also gave a viability, T/C [24] of 113%, a viability, T/C (second compound 10 µM, first compound 3.16 µM) of 96% and a viability, T/C (second compound 10 µM, first compound 10 µM) of 78.3%.
